Laboratory results reported in patent US8273775B2, “Non-steroidal brassinosteroid mimetic” (priority 2006, dated 2012).

Tested on: gene expression in Col-0 seedling shoots
Test: Microarray analysis (ATH1 Affymetrix) after BL or abrasin treatment
Assay type: in vivo, Arabidopsis
Settings: 120 min
Description: FIG. 14: Clustering of gene expression profiles by QT-clust analysis. Clusters illustrating the major patterns of the data sets. Points: BIK-30: 30 μM abrasin 30 min; BL-30: 1 μM brassinolide 30 min; DMSO-30: control DMSO 30 min; BIK-120: 30 μM abrasin 120 min; BL-120: 1 μM brassinolide 120 min; DMSO-120: control DMSO 120 min.
Col-0 seeds were germinated vertically on ½ MS medium for 7 days under 16 h light/8 h dark cycles. The seedlings were overlaid with liquid ½ MS medium containing 1 μM brassinolide (BL, Fuji Chemical Industries, Ltd., Toyama, Japan), 30 μM abrasin (BIK, ChemBridge Corporation) and DMSO and treated for 30 and 120 min. The shoot parts were collected for RNA isolation. All sampling points were performed in three independent experiments. RNA was extracted using RNeasy kit (Qiagene). […] total RNA per array was used to hybridise the ATH1 Affymetrix Arabidopsis arrays according to standard procedure. The overrepresentation analyses were performed using BiNGO software (Maere et al., 2005).
We performed a microarray analysis using the Arabidopsis whole genome chip (Affymetix) to determine whether abrasin activated the expression of BR-inducible genes at transcriptional level. Wild-type Col-0 seedlings were exposed to 1 μM BL, 30 μM ABRASIN and DMSO (mock-treatment) for two time points (30 min and 120 min) and the shoot parts were collected for RNA isolation. The analysis of the variance of the normalized gene expression data took in account the variability parameters affecting the expression level: type of hormone treatment, duration of treatment and the interaction between these two.

## O=C(O)CCC(=O)Nc1ccc(Br)cn1 [abrasin, 4-[(5-bromo-2-pyridinyl)amino]-4-oxobutanoic acid]
  Fold-change AT4G16780 homeobox-leucine zipper protein 4 (HAT4)/HD-ZIP protein: 0.42
  Fold-change AT4G17250 expressed protein: 3.32
  Fold-change AT4G17460 homeobox-leucine zipper protein 1 (HAT1)/HD-ZIP protein 1: 0.11
  Fold-change AT4G21510 F-box family protein: 2.54
  Fold-change AT4G23030 MATE efflux protein-related: 5.25
  Fold-change AT4G23070 rhomboid family protein: 3.80
  Fold-change AT4G23810 WRKY family transcription factor: 1.00
  Fold-change AT4G24160 hydrolase, alpha/beta fold family protein: 2.29
  Fold-change AT4G25620 hydroxyproline-rich glycoprotein family protein: 0.49
  Fold-change AT4G25780 pathogenesis-related protein: 0.18
  Fold-change AT4G27970 C4-dicarboxylate transporter/malic acid transport family protein: 3.04
  Fold-change AT4G28240 wound-responsive protein-related: 0.33
  Fold-change AT4G28490 leucine-rich repeat transmembrane protein kinase, putative: 2.30
  Fold-change AT4G28703 expressed protein: 6.14
  Fold-change AT4G28780 GDSL-motif lipase/hydrolase family protein: 1.26
  Fold-change AT4G29070 expressed protein: 0.50
  Fold-change AT4G30080 transcriptional factor B3 family protein: 0.41
  Fold-change AT4G31020 expressed protein: 5.81
  Fold-change AT4G32280 auxin-responsive AUX/IAA family protein (IAA29): 0.13
  Fold-change AT4G33050 calmodulin-binding family protein: 1.58
  Fold-change AT4G33700 CBS domain-containing protein: 0.38
  Fold-change AT4G34610 homeodomain-containing protein: 0.41
  Fold-change AT4G36110 auxin-responsive protein: 4.62
  Fold-change AT4G36780 brassinosteroid signalling positive regulator-related: 0.03
  Fold-change AT4G37240 expressed protein: 1.45
  Fold-change AT4G37290 expressed protein: 2.45
  Fold-change AT4G37590 phototropic-responsive NPH3 family protein: 0.43
  Fold-change AT4G38840 auxin-responsive protein (SAUR14): 1.95
  Fold-change AT4G38850 auxin-responsive protein (SAUR-AC1): 2.22
  Fold-change AT4G38860 auxin-responsive protein (SAUR16): 2.27
  Fold-change AT4G39400 brassinosteroid insensitive 1 (BRI1): 0.46
  Fold-change AT5G02020 expressed protein: 2.29
  Fold-change AT5G05690 cytochrome P450 90A1 (CYP90A1) (CYP90) (CPD): 0.29
  Fold-change AT5G07690 myb family transcription factor (MYB29): 0.27
  Fold-change AT5G08130 basic helix-loop-helix (bHLH) family protein (BIM2): 0.37
  Fold-change AT5G12050 expressed protein: 0.27
  Fold-change AT5G13180 no apical meristem (NAM) family protein: 0.39
  Fold-change AT5G13740 sugar transporter family protein: 0.23
  Fold-change AT5G14730 expressed protein: 0.53
  Fold-change AT5G16200 50S ribosomal protein-related: 0.10
  Fold-change AT5G16980 NADP-dependent oxidoreductase: 3.07
  Fold-change AT5G18750 DNAJ heat shock N-terminal domain-containing protein: 1.26
  Fold-change AT5G19200 short-chain dehydrogenase/reductase (SDR) family protein: 1.11
  Fold-change AT5G19340 expressed protein: 0.23
  Fold-change AT5G24030 C4-dicarboxylate transporter/malic acid transport family protein: 1.66
  Fold-change AT5G24660 expressed protein: 3.61
  Fold-change AT5G25240 expressed protein: 2.16
  Fold-change AT5G25930 leucine-rich repeat family protein: 1.38
  Fold-change AT5G27350 sugar-porter family protein 1 (SFP1): 1.56
  Fold-change AT5G27670 histone H2A: 0.41
  Fold-change AT5G38310 expressed protein: 1.88
  Fold-change AT5G38990; AT5G39000 [AT5G38990, protein kinase family protein: 2.08
  Fold-change AT5G39050 transferase family protein: 1.83
  Fold-change AT5G39610 no apical meristem (NAM) family protein: 0.35
  Fold-change AT5G39970 expressed protein: 2.66
  Fold-change AT5G42830 transferase family protein: 2.74
  Fold-change AT5G47370 homeobox-leucine zipper protein 2 (HAT2): 0.43
  Fold-change AT5G48070 putative xyloglucan endotransglycosylase/hydrolase: 3.63
  Fold-change AT5G48540 33 kDa secretory protein-related: 2.03
  Fold-change AT5G51550 phosphate-responsive 1 family protein: 0.41
  Fold-change AT5G54490 calcium-binding EF-hand protein, putative: 3.06
  Fold-change AT5G54860 integral membrane transporter family protein: 2.01
  Fold-change AT5G55970 zinc finger (C3HC4-type RING finger) family protein: 2.56
  Fold-change AT5G56980 expressed protein: 0.22
  Fold-change AT5G57190 phosphatidylserine decarboxylase: 1.58
  Fold-change AT5G57780 expressed protein: 0.13
  Fold-change AT5G59080 expressed protein: 0.40
  Fold-change AT5G60200 Dof-type zinc finger domain-containing protein: 3.85
  Fold-change AT5G60270 lectin protein kinase family protein: 2.56
  Fold-change AT5G60630 expressed protein: 2.20
  Fold-change AT5G61600 encodes a member of the ERF (ethylene response factor): 2.04
  Fold-change AT5G62360 invertase/pectin methylesterase inhibitor family protein: 0.25
  Fold-change AT5G65310 homeobox-leucine zipper protein 5 (HB-5)/HD-ZIP transcription factor 5: 0.20
  Fold-change AT5G66420 expressed protein: 0.42
  Fold-change AT5G66590 allergen V5/Tpx-1-related family protein: 0.31
  Fold-change AT5G67450 zinc finger (C2H2 type) protein 1 (AZF1): 1.82
245479_at, Cluster 6
  Fold-change of gene AT4G16140 (proline-rich family protein): 1.51
245543_at, Cluster 7
  Fold-change of gene AT4G15260 (UDP-glucoronosyl/UDP-glucosyl transferase family protein): 1.52
245885_at, Cluster 5
  Fold-change of gene AT5G09440 (phosphate-responsive protein, putative): 0.13
246389_at, Cluster 10
  Fold-change of gene AT1G77380 (amino acid carrier): 0.99
246516_at, Cluster 5
  Fold-change of gene AT5G15740 (expressed protein): 0.49
247177_at, Cluster 5
  Fold-change of gene AT5G65300 (expressed protein): 0.25
247205_at, Cluster 10
  Fold-change of gene AT5G64890 (expressed protein): 2.18
247351_at, Cluster 9
  Fold-change of gene AT5G63790 (no apical meristem (NAM) family protein): 0.69
247444_at, Cluster 7
  Fold-change of gene AT5G62630 (expressed protein): 2.28
247601_at, Cluster 10
  Fold-change of gene AT5G60850 (Dof-type zinc finger domain-containing protein): 0.64
247704_at, Cluster 9
  Fold-change of gene AT5G59510 (expressed protein): 0.60
247774_at, Cluster 5
  Fold-change of gene AT5G58660 (oxidoreductase. 2OG-Fe(II) oxygenase family protein): 2.15
248190_at, Cluster 5
  Fold-change of gene AT5G54120 (expressed protein): 0.38
248191_at, Cluster 5
  Fold-change of gene AT5G54130 (calcium-binding EF hand family protein): 0.31
248282_at, Cluster 6
  Fold-change of gene AT5G52900 (expressed protein): 0.96
248646_at, Cluster 9
  Fold-change of gene AT5G49100 (expressed protein): 0.62
250012_x_at, Cluster 6
  Fold-change of gene AT5G18060 (auxin-responsive protein): 0.46
250493_at, Cluster 9
  Fold-change of gene AT5G09800 (U-box domain-containing protein): 0.80
250537_at, Cluster 8
  Fold-change of gene AT5G08565 (expressed protein): 0.41
250907_at, Cluster 5
  Fold-change of gene AT5G03670 (expressed protein): 0.32
251072_at, Cluster 5
  Fold-change of gene AT5G01740 (expressed protein): 0.34
251176_at, Cluster 10
  Fold-change of gene AT3G63380 (calcium-transporting ATPase): 0.11
251342_at, Cluster 9
  Fold-change of gene AT3G60690 (auxin-responsive family protein): 0.29
252586_at, Cluster 10
  Fold-change of gene AT3G45610 (Dof-type zinc finger domain): 2.56
252646_at, Cluster 5
  Fold-change of gene AT3G44610 (protein kinase family protein): 0.38
253255_at, Cluster 6
  Fold-change of gene AT4G34760 (auxin-responsive family protein): 1.61
253281_at, Cluster 7
  Fold-change of gene AT4G34138 (UDP-glucoronosyl/UDP-glucosyl transferase family protein): 3.16
253483_at, Cluster 5
  Fold-change of gene AT4G31910 (transferase family protein): 1.60
253617_at, Cluster 5
  Fold-change of gene AT4G30410 (expressed protein): 0.45
253629_at, Cluster 5
  Fold-change of gene AT4G30450 (glycine-rich protein): 0.39
253999_at, Cluster 9
  Fold-change of gene AT4G26200 (1-aminocyclopropane-1-carboxylate synthase): 0.24
255403_at, Cluster 6
  Fold-change of gene AT4G03400 (auxin-responsive GH3 family protein): 0.77
255443_at, Cluster 7
  Fold-change of gene AT4G02700 (sulfate transporter): 2.16
255926_at, Cluster 8
  Fold-change of gene AT1G22190 (AP2 domain-containing transcription factor): 0.50
256528_at, Cluster 6
  Fold-change of gene AT1G66140 (zinc finger (C2H2 type) family protein): 0.61
256762_at, Cluster 8
  Fold-change of gene AT3G25655 (expressed protein): 0.15
256818_at, Cluster 7
  Fold-change of gene AT3G21420 (oxidoreductase, 2OG-Fe(II) oxygenase family protein): 2.39
257066_at, Cluster 5
  Fold-change of gene AT3G18280 (protease inhibitor/seed storage/lipid transfer protein): 0.39
257506_at, Cluster 6
  Fold-change of gene AT1G29440 (auxin-responsive family protein): 0.47
257746_at, Cluster 5
  Fold-change of gene AT3G29200 (chorismate mutase, chloroplast (CM1)): 0.49
259364_at, Cluster 8
  Fold-change of gene AT1G13260 (DNA-binding protein RAV1 (RAV1)): 0.46
259773_at, Cluster 6
  Fold-change of gene AT1G29500 (auxin-responsive protein): 0.61
259783_at, Cluster 6
  Fold-change of gene AT1G29510 (auxin-responsive protein): 0.50
259784_at, Cluster 6
  Fold-change of gene AT1G29450 (auxin-responsive protein): 0.61
259787_at, Cluster 6
  Fold-change of gene AT1G29460 (auxin-responsive protein): 0.44
259875_s_at, Cluster 7
  Fold-change of gene AT1G76690; AT1G76680 ([AT1G76690, 12-oxophytodienoate reductase (OPR2)): 6.14
259985_at, Cluster 8
  Fold-change of gene AT1G76620 (expressed protein): 0.28
260243_at, Cluster 10
  Fold-change of gene AT1G63720 (expressed protein): 0.16
260727_at, Cluster 8
  Fold-change of gene AT1G48100 (glycoside hydrolase family 28 protein): 0.38
261023_at, Cluster 7
  Fold-change of gene AT1G12200 (flavin-containing monooxygenase family protein): 2.20
261203_at, Cluster 6
  Fold-change of gene AT1G12845 (expressed protein): 2.71
261768_at, Cluster 6
  Fold-change of gene AT1G15550 (gibberellin 3-beta-dioxygenase): 1.17
261892_at, Cluster 9
  Fold-change of gene AT1G80840 (WRKY family transcription factor): 0.20
262040_at, Cluster 6
  Fold-change of gene AT1G80080 (leucine-rich repeat family protein): 2.07
262050_at, Cluster 8
  Fold-change of gene AT1G80130 (expressed protein): 0.18
262505_at, Cluster 10
  Fold-change of gene AT1G21680 (expressed protein): 2.01
262543_at, Cluster 6
  Fold-change of gene AT1G34245 (expressed protein): 5.18
263126_at, Cluster 7
  Fold-change of gene AT1G78460 (SOUL heme-binding family protein): 2.50
264279_s_at, Cluster 7
  Fold-change of gene AT1G78820; AT1G78830 ([AT1G78820, curculin-like (mannose-binding) lectin family protein): 1.84
265877_at, Cluster 6
  Fold-change of gene AT2G42380 (bZIP transcription factor family protein): 0.80
266124_at, Cluster 8
  Fold-change of gene AT2G45080 (cyclin family protein): 0.10
